In data set [1] the test system is human colon carcinoma HCT-116 cells. The data set can be described thus: MTT cell viability assay, HCT-116. It counts as cell-based. The method, then:
(§1) Human alveolar basal epithelial cell line (A-549) and human colon carcinoma (HCT-116), purchased from ATCC, USA, were used to evaluate the anticancer properties of the compounds. Cells were routinely cultured in RPMI (Roswell Park Memorial Institute Medium), except HCT-116 cells which were cultured in McCoy's medium. All media were supplemented with 10% fetal bovine serum (FBS), 2 mM L-glutamine, 100 units/ml penicillin G sodium, 100 units/ml streptomycin sulphate, and 250 ng/ml amphotericin B. Cells were maintained at sub-confluency at 37° C. in humidified air containing 5% CO2. For sub-culturing, monolayer cells were harvested after trypsin/EDTA treatment at 37° C. Cells were used when confluence had reached 75%. Tested samples were dissolved in dimethyl sulphoxide (DMSO), and then diluted in the assay to begin with the indicated concentration. All cell culture material was obtained from Cambrex BioScience (Copenhagen, Denmark). All chemicals were from Sigma/Aldrich, USA, unless otherwise indicated. All experiments were repeated three times, unless otherwise indicated.
Cytotoxicity of tested samples was measured against different cancer cells using the MTT Cell Viability Assay. The 3-[4,5-dimethylthiazole-2-yl]-2,5-diphenyltetrazolium bromide (MTT) assay is based on the ability of an active mitochondrial dehydrogenase enzyme of living cells to cleave the tetrazolium rings of the yellow MTT and form dark blue insoluble formazan crystals which are largely impermeable to cell membranes, resulting in its accumulation within healthy cells. Dissolution of the cells results in the liberation of crystals, which are then solubilized. The number of viable cells is directly proportional to the level of soluble formazan dark blue color. The extent of the reduction of MTT was quantified by measuring the absorbance at 570 nm.
MTT solution: 5 mg/ml of MTT in 0.9% NaCl.
Acidified isopropanol: 0.04 N HCl in absolute isopropanol.
Cells (0.5×10^5 cells/well), in serum-free media, were plated in a flat bottom 96-well microplate, and treated with 20 μl of different concentrations of the tested samples for 48 h at 37° C., in a humidified 5% CO2 atmosphere. After incubation, media was removed and 40 μl MTT solution/well were added and the cells were incubated for an additional 4 h. MTT crystals were solubilized by adding 180 μl of acidified isopropanol/well and plates were kept at room temperature, followed by photometric determination of the absorbance at 570 nm using a microplate ELISA reader. Triplicate repeats were performed for each concentration and the average was calculated. Data were expressed as the percentage of relative viability compared with the untreated cells compared with the vehicle control, with cytotoxicity indicated by <100% relative viability
The percentage of relative viability was calculated using the following equation: [Absorbance of treated cells/Absorbance of control cells)]×100 Then the half maximal inhibitory concentration (IC50) was calculated from the equation of the concentration vs % of viability curve. Results and Discussion
A general note: Tetrazolium assays rely on reduction of a dye to a coloured formazan, in cell work by metabolically active cells.

The nature of data set [2]: MTT cell viability assay, A-549. It counts as cell-based, human. Conditions: compared to the tumor cell line HCT116. The method, then: as §1, with “Tested samples were dissolved in dimethyl sulphoxide (DMSO), and then diluted in the assay to begin with the indicated concentration. All cell culture material was obtained from Cambrex BioScience (Copenhagen, Denmark). All chemicals were from Sigma/Aldrich, USA, unless otherwise indicated. All experiments were repeated three times, unless otherwise indicated.” left out
(§2) Cytotoxicity of tested samples was measured against different cancer cells using the MTT Cell Viability Assay. […] The extent of the reduction of MTT was quantified by measuring the absorbance at 570 nm. […]
(§3) Cells (0.5×10^5 cells/well), in serum-free media, were plated in a flat bottom 96-well microplate, and treated with 20 μl of different concentrations of the tested samples for 48 h at 37° C., in a humidified 5% CO2 atmosphere. […] MTT crystals were solubilized by adding 180 μl of acidified isopropanol/well and plates were kept at room temperature, followed by photometric determination of the absorbance at 570 nm using a microplate ELISA reader. […]

The subject of data set [3] is normal human alveolar basal epithelial cell line (A-549). The data set can be described thus: MTT cell viability assay, A-549. It is filed as cell-based. Particulars: A-549 versus HCT116. The method, then:
as §1, with “Tested samples were dissolved in dimethyl sulphoxide (DMSO), and then diluted in the assay to begin with the indicated concentration. All cell culture material was obtained from Cambrex BioScience (Copenhagen, Denmark). All chemicals were from Sigma/Aldrich, USA, unless otherwise indicated. All experiments were repeated three times, unless otherwise indicated.” left out
as §2, §3

Setting [4] is: Homo sapiens, HCT-116, 48 h treatment, read-out: IC50 against the colon cancer cell line HCT 116.

Where two headings read alike, the source gives them in different places.

Usually IC50 stands for the concentration needed to halve the response being measured. Take `Cc1ccc(NN=C(C=O)C(=O)c2ccc(C(=O)/C(C=O)=N/Nc3ccc(C)cc3)cc2)cc1` [Compound 9a]: the IC50 in data set [1] (48 h treatment, read-out: IC50 against the colon cancer cell line HCT 116) worked out at 126 nM. Take `N#Cc1ccccc1N/N=C(/C=O)C(=O)c1ccc(C(=O)/C(C=O)=N/Nc2ccccc2C#N)cc1` [Compound 9b, 2-(2-((E)-1-(4-((Z)-2-(2-(2-cyanophenyl)hydrazineylidene)-3-oxopropanoyl)phenyl)-1,3-dioxopropan-2-ylidene)hydrazineyl)benzonitrile]: the concentration for half-maximal inhibition (IC50) in data set [1] (setting [4]) is 299 nM. The same measure, in the same setting: with `Cc1ccc(N/N=C(\C=O)C(=O)c2cccc(C(=O)/C(C=O)=N/Nc3ccc(C)cc3)n2)cc1` [Compound 11a, (2E,2′E)-3,3′-(pyridine-2,6-diyl)bis(3-oxo-2-(2-(p-tolyl)hydrazineylidene)propanal)] the figure was 277 nM. On to `N#Cc1ccccc1N/N=C(\C=O)C(=O)c1cccc(C(=O)/C(C=O)=N/Nc2ccccc2C#N)n1` [Compound 11b, 2,2′-(((2E,2′E)-pyridine-2,6-diylbis(1,3-dioxopropan-1-yl-2-ylidene))bis(hydrazin-1-yl-2-ylidene))dibenzonitrile], for which the IC50 worked out at 98 nM in data set [1] (setting [4]) and 98 ± 30 nM in data set [1] (Homo sapiens, HCT-116, 48 h treatment, read-out: IC50 for HCT116 cancer cells). The “Cytotoxic effects on the normal, non-tumorigenic A-549 cell line” value in data set [2] is on record as “only weak cytotoxic effects”. In addition, the Selectivity index entry in data set [3] is “excellent selectivity index”. Turning to `COc1cccc2c1C(=O)c1c(O)c3c(c(O)c1C2=O)C[C@@](O)(C(=O)CO)C[C@@H]3O[C@H]1C[C@H](N)[C@H](O)[C@H](C)O1` [Doxorubicin, reference compound], the IC50 in data set [1] (setting [4]) worked out at 126 nM.
